From patent US20250304620A1, “ANTIMICROBIAL PEPTIDE AND APPLICATION THEREOF” (priority 2023, published 2025) come the findings set out here.

SMILES strings stand for the structures. Marks after values point to notes of the source that are not given here. Non-standard residues stand in square brackets, D forms with d. Residues, ends and D or L forms follow the SMILES beside them. d2Nal = N[C@H](Cc1ccc2ccccc2c1)C(=O)O

Series [1] deals with rabbit red blood cells. In kind it is cell-based. The following applies: red cells of rabbit, 1 h.
Series [2] concerns Escherichia coli ATCC 25922. The series is described as follows: Oral formulations on mice with systemic bacterial infection. It is filed as in vivo, ICR mice. As to conditions: three times a day for 7 days; for Number of mice that died on each day after infection: day 4 / Number of mice that died on each day after infection: day 5 / Number of mice that died on each day after infection: day 6 / Number of mice that died on each day after infection: day 7 / Number of mice that died on each day after infection: day 8 / Average survival times (Days): n = 10; for Average survival times (Days): observed for 14 d; for survival time of mice infected with Escherichia coli: gavage, observed 14 d. The gist of the method:
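Survival time and deaths were logged over a 14 d observation after oral gavage dosing (by body weight, thrice daily, 7 days, starting right after infection). Model: mixed-sex ICR mice, n=10 per group, intraperitoneal injection of E. coli ATCC 25922 suspension (0.2 mL, 1×10^7 CFU/mL).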

For the molecule `CC(=O)N[C@H](CCCNC(=N)N)C(=O)N[C@H](CCCCN)C(=O)N[C@@H](C(=O)N[C@@H](C(=O)N[C@H](Cc1ccc2ccccc2c1)C(=O)N[C@H](CCCNC(=N)N)C(=O)N[C@@H](C(=O)N[C@H](CCCCN)C(=O)N[C@H](Cc1ccc2ccccc2c1)C(=O)N[C@H](CCCNC(=N)N)C(=O)N[C@H](CCCCN)C(N)=O)C(C)C)C(C)C)C(C)C` [LV-16] (Ac-[dR][dK][dV][dV][d2Nal][dR][dV][dK][d2Nal][dR][dK]-NH2), in series [1], the “MHC (minimum hemolytic concentration, lowest concentration causing 10% hemolysis)” value was greater than 1000 µg/mL. Further, in series [2] (1 mg/kg gavage), the “Number of mice that died on each day after infection: day 4” value (“Number of mice that died … day 4” for short) is 1 Mouse, the “Number of mice that died on each day after infection: day 5” value (shortened to “Number of mice that died … day 5”) was determined as 1 Mouse, the “Number of mice that died on each day after infection: day 6” value (“Number of mice that died … day 6” below) was determined as 1 Mouse and the “Number of mice that died on each day after infection: day 7” value (from here on “Number of mice that died … day 7”) worked out at 0 Mouse. Further, in series [2] (1 mg/kg gavage), the “Number of mice that died on each day after infection: day 8” value (shortened to “Number of mice that died … day 8”) was 2 Mouse and the “Average survival times (Days)” value is listed as 10.1*** Days.

`CC(=O)N[C@H](CCCCN)C(=O)N[C@H](CCCCN)C(=O)N[C@H](CC(C)C)C(=O)N[C@H](CC(C)C)C(=O)N[C@H](Cc1ccc2ccccc2c1)C(=O)N[C@H](CCCCN)C(=O)N[C@H](CC(C)C)C(=O)N[C@H](CCCCN)C(=O)N[C@H](Cc1ccc2ccccc2c1)C(=O)N[C@H](CCCCN)C(=O)N[C@H](CCCCN)C(N)=O` [LV-17] (Ac-[dK][dK][dL][dL][d2Nal][dK][dL][dK][d2Nal][dK][dK]-NH2): in series [1], the “MHC (minimum hemolytic concentration, lowest concentration causing 10% hemolysis)” value is greater than 1000 µg/mL. Also, in series [2] (0.2 mg/kg gavage), the “Number of mice that died … day 4” value is reported as 1 Mouse, the “Number of mice that died … day 5” value was determined as 2 Mouse, the “Number of mice that died … day 6” value is recorded as 1 Mouse and the “Number of mice that died … day 7” value is 1 Mouse. Besides, in series [2] (0.2 mg/kg gavage), the “Number of mice that died … day 8” value was 2 Mouse and the “Average survival times (Days)” value is listed as 8.5** Days. In series [2] (1 mg/kg gavage), the “Number of mice that died … day 4” value worked out at 1 Mouse, the “Number of mice that died … day 5” value was found to be 0 Mouse, the “Number of mice that died … day 6” value is recorded as 2 Mouse and the “Number of mice that died … day 7” value came to 1 Mouse. In series [2] (1 mg/kg gavage), the “Number of mice that died … day 8” value came out at 0 Mouse and the “Average survival times (Days)” value is on record as 10.7*** Days. Besides, in series [2] (5 mg/kg gavage), the “Number of mice that died … day 4” value is listed as 2 Mouse, the “Number of mice that died … day 5” value amounted to 1 Mouse, the “Number of mice that died … day 6” value was 0 Mouse and the “Number of mice that died … day 7” value is on record as 1 Mouse. Further, in series [2] (5 mg/kg gavage), the “Number of mice that died … day 8” value came to 1 Mouse and the “Average survival times (Days)” value is given as 9.8** Days. Also, the “survival time of mice infected with Escherichia coli” value (“survival time of mice infected” below) in series [2] is listed as “superior to those of the Levofloxacin group”.

For the molecule `CC(=O)N[C@H](CCCNC(=N)N)C(=O)N[C@H](CCCCN)C(=O)N[C@H](CC(C)C)C(=O)N[C@H](CC(C)C)C(=O)N[C@H](Cc1ccc2ccccc2c1)C(=O)N[C@H](CCCCN)C(=O)N[C@H](CC(C)C)C(=O)N[C@H](CCCCN)C(=O)N[C@H](Cc1ccc2ccccc2c1)C(=O)N[C@H](CCCCN)C(=O)N[C@H](CCCNC(=N)N)C(N)=O` [LV-18] (Ac-[dR][dK][dL][dL][d2Nal][dK][dL][dK][d2Nal][dK][dR]-NH2), the “MHC (minimum hemolytic concentration, lowest concentration causing 10% hemolysis)” value in series [1] is greater than 1000 µg/mL. In addition, in series [2] (0.2 mg/kg gavage), the “Number of mice that died … day 4” value was 0 Mouse, the “Number of mice that died … day 5” value turned out to be 1 Mouse, the “Number of mice that died … day 6” value is recorded as 2 Mouse and the “Number of mice that died … day 7” value is 1 Mouse. For the same molecule, in series [2] (0.2 mg/kg gavage), the “Number of mice that died … day 8” value is 0 Mouse and the “Average survival times (Days)” value was 10.8*** Days. For the same molecule, in series [2] (1 mg/kg gavage), the “Number of mice that died … day 4” value was found to be 0 Mouse, the “Number of mice that died … day 5” value is listed as 1 Mouse, the “Number of mice that died … day 6” value is 0 Mouse and the “Number of mice that died … day 7” value was 1 Mouse. Also, in series [2] (1 mg/kg gavage), the “Number of mice that died … day 8” value was 0 Mouse and the “Average survival times (Days)” value is 12.4**** Days. Further, in series [2] (5 mg/kg gavage), the “Number of mice that died … day 4” value is on record as 0 Mouse, the “Number of mice that died … day 5” value came to 1 Mouse, the “Number of mice that died … day 6” value is listed as 2 Mouse and the “Number of mice that died … day 7” value was 0 Mouse. Also, in series [2] (5 mg/kg gavage), the “Number of mice that died … day 8” value is listed as 0 Mouse and the “Average survival times (Days)” value was 11.5**** Days. In addition, the “survival time of mice infected” value in series [2] is listed as “superior to those of the Levofloxacin group”.

`CC(=O)N[C@H](CCCCN)C(=O)N[C@H](CCCCN)C(=O)N[C@H](CC(C)C)C(=O)N[C@H](CC(C)C)C(=O)N[C@H](Cc1ccc2ccccc2c1)C(=O)N[C@H](CCCNC(=N)N)C(=O)N[C@H](CC(C)C)C(=O)N[C@H](CCCCN)C(=O)N[C@H](Cc1ccc2ccccc2c1)C(=O)N[C@H](CCCNC(=N)N)C(=O)N[C@H](CCCCN)C(N)=O` [LV-19] (Ac-[dK][dK][dL][dL][d2Nal][dR][dL][dK][d2Nal][dR][dK]-NH2): the “MHC (minimum hemolytic concentration, lowest concentration causing 10% hemolysis)” value in series [1] was greater than 1000 µg/mL. For the same molecule, in series [2] (0.2 mg/kg gavage), the “Number of mice that died … day 4” value amounted to 0 Mouse, the “Number of mice that died … day 5” value is reported as 2 Mouse, the “Number of mice that died … day 6” value worked out at 1 Mouse and the “Number of mice that died … day 7” value is recorded as 2 Mouse. For the same molecule, in series [2] (0.2 mg/kg gavage), the “Number of mice that died … day 8” value is 1 Mouse and the “Average survival times (Days)” value is 9.4** Days. In series [2] (1 mg/kg gavage), the “Number of mice that died … day 4” value is given as 0 Mouse, the “Number of mice that died … day 5” value turned out to be 1 Mouse, the “Number of mice that died … day 6” value stood at 1 Mouse and the “Number of mice that died … day 7” value is listed as 1 Mouse. Also, in series [2] (1 mg/kg gavage), the “Number of mice that died … day 8” value amounted to 0 Mouse and the “Average survival times (Days)” value is listed as 11.6**** Days. For the same molecule, in series [2] (5 mg/kg gavage), the “Number of mice that died … day 4” value is 0 Mouse, the “Number of mice that died … day 5” value is recorded as 2 Mouse, the “Number of mice that died … day 6” value came to 1 Mouse and the “Number of mice that died … day 7” value is reported as 1 Mouse. In series [2] (5 mg/kg gavage), the “Number of mice that died … day 8” value is recorded as 0 Mouse and the “Average survival times (Days)” value is reported as 10.7*** Days. In addition, the “survival time of mice infected” value in series [2] is given as “superior to those of the Levofloxacin group”.

`CC(=O)N[C@H](CCCNC(=N)N)C(=O)N[C@H](CCCCN)C(=O)N[C@H](CC(C)C)C(=O)N[C@H](CC(C)C)C(=O)N[C@H](Cc1ccc2ccccc2c1)C(=O)N[C@H](CCCNC(=N)N)C(=O)N[C@H](CC(C)C)C(=O)N[C@H](CCCCN)C(=O)N[C@H](Cc1ccc2ccccc2c1)C(=O)N[C@H](CCCNC(=N)N)C(=O)N[C@H](CCCCN)C(N)=O` [LV-20] (Ac-[dR][dK][dL][dL][d2Nal][dR][dL][dK][d2Nal][dR][dK]-NH2): the “MHC (minimum hemolytic concentration, lowest concentration causing 10% hemolysis)” value in series [1] is greater than 1000 µg/mL. Besides, in series [2] (0.2 mg/kg gavage), the “Number of mice that died … day 4” value is recorded as 1 Mouse, the “Number of mice that died … day 5” value is 1 Mouse, the “Number of mice that died … day 6” value worked out at 2 Mouse and the “Number of mice that died … day 7” value came to 2 Mouse. Further, in series [2] (0.2 mg/kg gavage), the “Number of mice that died … day 8” value is reported as 0 Mouse and the “Average survival times (Days)” value is recorded as 9.1** Days. In addition, in series [2] (1 mg/kg gavage), the “Number of mice that died … day 4” value is 1 Mouse, the “Number of mice that died … day 5” value was found to be 1 Mouse, the “Number of mice that died … day 6” value is 0 Mouse and the “Number of mice that died … day 7” value was 1 Mouse. For the same molecule, in series [2] (1 mg/kg gavage), the “Number of mice that died … day 8” value turned out to be 0 Mouse and the “Average survival times (Days)” value is 11.4**** Days. Besides, in series [2] (5 mg/kg gavage), the “Number of mice that died … day 4” value is listed as 2 Mouse, the “Number of mice that died … day 5” value is 0 Mouse, the “Number of mice that died … day 6” value amounted to 2 Mouse and the “Number of mice that died … day 7” value worked out at 0 Mouse. Moreover, in series [2] (5 mg/kg gavage), the “Number of mice that died … day 8” value is 0 Mouse and the “Average survival times (Days)” value is 10.4*** Days. Moreover, the “survival time of mice infected” value in series [2] is on record as “superior to those of the Levofloxacin group”.

`CC(=O)N[C@H](CCCNC(=N)N)C(=O)N[C@H](CCCNC(=N)N)C(=O)N[C@H](CC(C)C)C(=O)N[C@H](CC(C)C)C(=O)N[C@H](Cc1ccc2ccccc2c1)C(=O)N[C@H](CCCNC(=N)N)C(=O)N[C@H](CC(C)C)C(=O)N[C@H](CCCCN)C(=O)N[C@H](Cc1ccc2ccccc2c1)C(=O)N[C@H](CCCNC(=N)N)C(=O)N[C@H](CCCCN)C(N)=O` [LV-21] (Ac-[dR][dR][dL][dL][d2Nal][dR][dL][dK][d2Nal][dR][dK]-NH2): the “MHC (minimum hemolytic concentration, lowest concentration causing 10% hemolysis)” value in series [1] was greater than 1000 µg/mL. In series [2] (1 mg/kg gavage), the “Number of mice that died … day 4” value stood at 1 Mouse, the “Number of mice that died … day 5” value is given as 2 Mouse, the “Number of mice that died … day 6” value came to 1 Mouse and the “Number of mice that died … day 7” value is recorded as 0 Mouse. Further, in series [2] (1 mg/kg gavage), the “Number of mice that died … day 8” value is 1 Mouse and the “Average survival times (Days)” value is given as 9.8** Days.
